Measurements: patent US20120196899A1, “METHODS AND PRODUCTS FOR TREATING INFLAMMATION” (Rock Creek Pharmaceuticals, Inc., priority 2010, published 2012)
Values joined by “and” are separate entries in the source; they are usually repeats but may differ in a detail not shown here. Identical values can stand only once.

Experiments:
[1] = Clinical chemistry, day 15; type: in vivo, Sprague-Dawley rats
Description: On day 15, urine was collected on all surviving animals for urinalysis. The animals were euthanized and bled via cardiac puncture. Blood was collected for hematology, clinical chemistry, and coagulation analysis. Tissues were collected, weighed, and stored in 10% neutral-buffered formalin for possible future analysis.

[2] = test system: LPS-induced IL-1β release; assay: LPS-induced IL-1β release in whole human blood; type: cell-based
Protocol: Whole human blood was treated with LPS to stimulate inflammatory responses. […] The inflammatory molecule IL-1β was measured after 16 hours.

7W CHO cells = assay: Toxicity in 7W CHO cells; type: cell-based
[3] = Physical signs after oral multi-dose administration; type: in vivo, Sprague-Dawley rats; conditions: 0.6 or 6.0 mg/kg BW p.o. in three divided doses
Description: The physical signs of each animal were monitored following administration of the test compound.

[4] = anatabine 0.75 mg/kg, female rats, individual animals
[5] = anatabine 0.75 mg/kg, male rats, individual animals

With `C1=CCC(c2cccnc2)NC1` (racemic) [Anatabine, 1,2,3,6-tetrahydro-[2,3′]bipyridinyl] the CHLORIDE [1, 4] was 97 mEq/L (2×) and 96 mEq/L and 99 mEq/L and 101 mEq/L, the CHOLESTEROL [1, 4] was 66 mg/dL and 64 mg/dL and 63 mg/dL and 69 mg/dL and 87 mg/dL and the CREATININE [1, 4] was 0.5 mg/dL (2×) and 0.4 mg/dL (3×). The “DIR BILIRUBIN” value [1, 4] was 0 mg/dL, the GLOBULIN [1, 4] was 2.7 g/dL and 3 g/dL (2×) and the GLUCOSE [1, 4] was 237 mg/dL and 247 mg/dL and 217 mg/dL. For the same compound, the PHOSPHORUS [1, 4] was 9.7 mg/dL and 7.7 mg/dL and 9.6 mg/dL and 9.2 mg/dL and 7 mg/dL, the POTASSIUM [1, 4] was 5.5 mEq/L and 5.9 mEq/L and 6 mEq/L and 5.7 mEq/L and 6.3 mEq/L and the SODIUM [1, 4] was 145 mEq/L (2×) and 144 mEq/L (2×) and 147 mEq/L. The “TOT BILIRUBIN” value [1, 4] was 0 mg/dL, the “TOT PROTEIN” value [1, 4] was 6.3 g/dL (2×) and 6.2 g/dL and 6.6 g/dL and 6.5 g/dL and the ALBUMIN [1, 5] was 3.4 g/dL (2×) and 3.1 g/dL and 3.2 g/dL and 3.3 g/dL. For the same compound, the “ALK PHOSPHATASE” value [1, 5] was 479 IU/L and 297 IU/L and 325 IU/L and 337 IU/L and 416 IU/L, the ALT [1, 5] was 75 IU/L and 57 IU/L and 65 IU/L and 50 IU/L and 87 IU/L and the AST [1, 5] was 103 IU/L and 66 IU/L and 97 IU/L and 90 IU/L and 92 IU/L. For the same compound, the BUN [1, 5] was 15 mg/dL and 18 mg/dL and 12 mg/dL and 17 mg/dL and 21 mg/dL, the CHLORIDE [1, 5] was 98 mEq/L and 99 mEq/L (2×) and 100 mEq/L and 97 mEq/L and the CHOLESTEROL [1, 5] was 69 mg/dL (2×) and 60 mg/dL and 54 mg/dL and 62 mg/dL. The CREATININE [1, 5] was 0.4 mg/dL (3×) and 0.3 mg/dL (2×), the “DIR BILIRUBIN” value [1, 5] was 0 mg/dL (4×) and 0.1 mg/dL and the GLOBULIN [1, 5] was 2.6 g/dL and 2.7 g/dL and 2.9 g/dL. The GLUCOSE [1, 5] was 222 mg/dL and 160 mg/dL and 198 mg/dL, the PHOSPHORUS [1, 5] was 11 mg/dL and 10.7 mg/dL and 10 mg/dL and 10.6 mg/dL and the POTASSIUM [1, 5] was 6.3 mEq/L (2×) and 5.4 mEq/L and 6 mEq/L and 6.6 mEq/L. The SODIUM [1, 5] was 147 mEq/L and 150 mEq/L, the “TOT BILIRUBIN” value [1, 5] was 0 mg/dL (4×) and 0.1 mg/dL and the “TOT PROTEIN” value [1, 5] was 6.2 g/dL and 5.7 g/dL and 5.9 g/dL and 6.1 g/dL and 6.3 g/dL. For the same compound, the albumin levels ([1]; anatabine: males 0.75 and […], females 0.1 and 0.75 mg/kg) was “slight increases in albumin levels”, the ALBUMIN ([1]; female, 0.1 mg/kg, group mean) was 3.62 g/dL and the “ALK PHOSPHATASE” value ([1]; female, 0.1 mg/kg, group mean) was 248.40 IU/L. For the same compound, the ALT ([1]; female, 0.1 mg/kg, group mean) was 49.60 IU/L, the AST ([1]; female, 0.1 mg/kg, group mean) was 77.00 IU/L and the “DIR BILIRUBIN” value ([1]; female, 0.1 mg/kg, group mean) was 0.00 mg/dL. The GLOBULIN ([1]; female, 0.1 mg/kg, group mean) was 3.02 g/dL, the “TOT BILIRUBIN” value ([1]; female, 0.1 mg/kg, group mean) was 0.00 mg/dL and the “TOT PROTEIN” value ([1]; female, 0.1 mg/kg, group mean) was 6.64 g/dL. For the same compound, the ALBUMIN ([1]; female, 0.75 mg/kg, group mean) was 3.52 g/dL, the “ALK PHOSPHATASE” value ([1]; female, 0.75 mg/kg, group mean) was 158.00 IU/L and the ALT ([1]; female, 0.75 mg/kg, group mean) was 54.60 IU/L. The AST ([1]; female, 0.75 mg/kg, group mean) was 73.20 IU/L, the BUN ([1]; female, 0.75 mg/kg, group mean) was 15.40 mg/dL and the “DIR BILIRUBIN” value ([1]; female, 0.75 mg/kg, group mean) was 0.00 mg/dL. For the same compound, the GLOBULIN ([1]; female, 0.75 mg/kg, group mean) was 2.86 g/dL, the “TOT BILIRUBIN” value ([1]; female, 0.75 mg/kg, group mean) was 0.00 mg/dL and the “TOT PROTEIN” value ([1]; female, 0.75 mg/kg, group mean) was 6.38 g/dL. For the same compound, the ALBUMIN ([1]; male, 0.1 mg/kg, group mean) was 3.24 g/dL, the “ALK PHOSPHATASE” value ([1]; male, 0.1 mg/kg, group mean) was 407.40 IU/L and the ALT ([1]; male, 0.1 mg/kg, group mean) was 70.60 IU/L. For the same compound, the AST ([1]; male, 0.1 mg/kg, group mean) was 96.00 IU/L, the BUN ([1]; male, 0.1 mg/kg, group mean) was 18.00 mg/dL and the “DIR BILIRUBIN” value ([1]; male, 0.1 mg/kg, group mean) was 0.00 mg/dL. For the same compound, the GLOBULIN ([1]; male, 0.1 mg/kg, group mean) was 2.86 g/dL, the “TOT BILIRUBIN” value ([1]; male, 0.1 mg/kg, group mean) was 0.00 mg/dL and the “TOT PROTEIN” value ([1]; male, 0.1 mg/kg, group mean) was 6.10 g/dL. The ALBUMIN ([1]; male, 0.75 mg/kg, group mean) was 3.28 g/dL, the “ALK PHOSPHATASE” value ([1]; male, 0.75 mg/kg, group mean) was 370.80 IU/L and the ALT ([1]; male, 0.75 mg/kg, group mean) was 66.80 IU/L. For the same compound, the AST ([1]; male, 0.75 mg/kg, group mean) was 89.60 IU/L, the “DIR BILIRUBIN” value ([1]; male, 0.75 mg/kg, group mean) was 0.02 mg/dL and the “TOT BILIRUBIN” value ([1]; male, 0.75 mg/kg, group mean) was 0.02 mg/dL. The “TOT PROTEIN” value ([1]; male, 0.75 mg/kg, group mean) was 6.04 g/dL, the globulins ([1]; males, all anatabine dose levels, nicotine 0.75 mg/kg) was “marginally higher” and the “IL-1β production over time” value ([2]; LPS-stimulated human blood, repeated measurement (Example 15)) was “rapid and continuous effect on the suppression”. For the same compound, the “accumulation of IL-1β” value ([2]; LPS-treated whole human blood, 16 hours (Example 13)) was “reduced accumulation of IL-1β”, the “accumulation of IL-1β over dose response” value ([2]; LPS-treated whole human blood, 16 hours (Example 14)) was “reduced accumulation of IL-1β” and the toxicity (7W CHO cells) was “No toxicity was observed”. For the same compound, the adverse signs [3] was “no adverse signs were observed”.
